Here are results for one compound from patent US20260151504A1, “SYNTHETIC CELLS COMPRISING TNF-RELATED APOPTOSIS-INDUCING LIGAND (TRAIL) AND METHODS OF USING THE SAME” (Slingshot Biosciences, Inc., priority 2023, published 2026).

One assay relates to Jeko-1 tumor cells. Briefly: Annexin V / 7-AAD flow cytometry of Jeko-1 tumor cells treated with TRAIL delivery systems. It is filed as cell-based. The conditions noted are these: camptothecin 100 nM, percentage of cells. How it is done:
(§1) Briefly, 100K live Jeko-1 or Jurkat cells were plated in RPMI media containing 10% Fetal bovine serum and 1% PenStrep in 100 μL volume.
(§2) Synthetic cytotoxic cells and equivalent total molecules of soluble TRAIL were plated 8 hours post seeding of tumor cells in 100 μL total volume. Amount of soluble TRAIL per well to match the amount of microsphere or bead-bound TRAIL was calculated as follows. Assuming 150K TRAIL molecules per microsphere/bead and 1e^6 microsphere/bead per well, 1.5e^11 soluble TRAIL molecules per well were used, which was calculated to be equivalent to 23 ng soluble TRAIL per well.
(§3) Twenty-four and forty-eight hours post incubation, cells were harvested and stained with Annexin V and 7-AAD. Anti-CD19 and Anti-CD3 antibodies were used to separate Jeko-1 cells from beads and Jurkat cells from beads, respectively. While Jeko-1 cells are CD19-expressing B-cells that are TRAIL-sensitive, Jurkat cells are CD3-expressing T cells that have low-moderate sensitivity to TRAIL. Determination of stage of cell death and % apoptotic cells were determined from the gating strategy outlined in FIG. 8. Samples were plated in duplicates and all sample acquisition was performed on the Cytoflex Beckman Coulter Flow Cytometer 24 hours and 48 hours post treatment of tumor cells with treatment conditions. Data analysis was further processed on FlowJo™ v10 software.
(In general: Flow cytometry measures light scatter and fluorescence of single cells or particles in a stream.)

The subject of another assay is Jurkat tumor cells. Briefly: Annexin V / 7-AAD flow cytometry of Jurkat tumor cells treated with TRAIL delivery systems. It is filed as cell-based. The conditions noted are these: camptothecin 100 nM, percentage of cells. How it is done: as §1, §2, §3
The mark [1] stands for this setting: Table 4A, Jeko-1, 24 Hrs., TRAIL equivalent to 1.5e^11 molecules per well.

For the compound `CC[C@@]1(O)C(=O)OCc2c1cc1n(c2=O)Cc2cc3ccccc3nc2-1` [Camptothecin, camptothecin], the “Early Stage Apoptotic (7-AAD−/Annexin V+)” value was 56.5 with Jeko-1 tumor cells (setting [1]); 7.64 in the assay on Jeko-1 tumor cells (Table 4B, Jeko-1, 48 Hrs.); 59.8 in the assay with Jurkat tumor cells (Table 5A, 24 Hrs.); 25.5 with Jurkat tumor cells (Table 5B, 48 Hrs.). For the same compound, the “Late Stage Apoptotic (7-AAD+/Annexin V+)” value in the assay with Jeko-1 tumor cells (setting [1]) stood at 39.5; with Jeko-1 tumor cells (Table 4B, Jeko-1, 48 Hrs.), 91.0; in the assay on Jurkat tumor cells (Table 5A, 24 Hrs.), 26.9; with Jurkat tumor cells (Table 5B, 48 Hrs.) it was 69.8. Also, the “Live Cells (7-AAD−/Annexin V−)” value came out at 3.88 with Jeko-1 tumor cells (setting [1]); 1.19 in the assay with Jeko-1 tumor cells (Table 4B, Jeko-1, 48 Hrs.); 13.1 with Jurkat tumor cells (Table 5A, 24 Hrs.); 3.36 with Jurkat tumor cells (Table 5B, 48 Hrs.). The “Necrotic (7-AAD+/Annexin V−)” value stood at 0.077 in the assay with Jeko-1 tumor cells (setting [1]); 0.13 in the assay on Jeko-1 tumor cells (Table 4B, Jeko-1, 48 Hrs.); 0.13 in the assay with Jurkat tumor cells (Table 5A, 24 Hrs.); 1.33 in the assay on Jurkat tumor cells (Table 5B, 48 Hrs.).
